Reference: US6987093B2 (priority 2001, dated 2006)
Values after ≈ are worked out from the molar mass of the structure shown. Where two headings read alike, the source gives them in different places.

What was measured:
[1] = system: acute otitis media; test: Single 30 mg/kg dose azithromycin pediatric acute otitis media trial (Study A0661015), all subjects
Description: Craig, W. A., “Postantibiotic effects and the dosing of Macrolides, azalides, and streptogramins”, In: Zinner, S. H. et al. (editor) Expanding Indications for New Macrolides, Azalides, and Streptogramins, New York: Marel Dekker (1997), pp. 27–38.
(§1) Children six months to twelve years were enrolled if they had symptoms and signs of acute otitis media (“AOM”) for less than four weeks and middle ear effusion by acoustic reflectometry. Symptoms necessary for enrollment included ear pain or fullness, discharge from the external auditory canal, decreased hearing or fever. On physical examination they must have had one or more of the following: bulging or marked erythema of the tympanic membrane, loss of the normal light reflex or tympanic membrane landmarks, or impaired tympanic mobility on biphasic pneumatic otoscopy. The effusion was to be documented by acoustic reflectometry with an abnormal reading of 3 or higher.
(§2) Samples of middle ear fluid were obtained by tympanocentesis or, in the case of a perforated tympanic membrane, by swab. Middle ear fluid samples were obtained for culture at baseline. […] Children who vomited within thirty minutes of dosing were redosed.
(§3) A phone contact occurred on study day 5 to assess for adverse events followed by visits on days 10 and 24–28, at which time detailed clinical assessments were made and adverse events were recorded. Definitions included clinical cure (complete resolution of all signs and symptoms of AOM); improvement (partial resolution of signs and symptoms); or failure (no change or worsening of signs and symptoms, or requirement for additional antibiotic therapy for AOM). Any patient considered to have failed therapy was to have a repeat tympanocentesis.
(§4) The primary endpoint of the trial was the investigator designated cure rate at Day 24–28 for which a 95% confidence interval was computed using the normal approximation to the binomial distribution. Other endpoints analyzed included the clinical response rate by baseline pathogen at Day 24–28, the overall clinical response at Day 10, the percentage of subjects with individual signs and symptoms, as well as findings from pneumatic otoscopy and acoustic reflectometry. Only Streptococcus pneumoniae, Moraxella catarrhalis and Haemophilus influenzae were considered baseline pathogens for the purposes of these analyses.
This trial was an open-label, non-comparative study conducted at twenty-two sites from the United States, Costa Rica, Guatemala and Chile.
Not all strains are equally virulent and the growth rate and kinetics of infection may influence the outcome. In addition, H. influenzae has been a difficult organism to culture from the middle ear.

[2] = system: S. pneumoniae; test: Study 95-001 otitis media, S. pneumoniae as baseline pathogen; type: in vivo, human; details: five patients in azithromycin regimens with S. pneumoniae isolates with intermediate resistance
Procedure: (§5) Specimens for culture and susceptibility testing were obtained from the infected ear by tympanocentesis within 24 h of start of therapy. […] However, the study was evaluated using the breakpoints in the most recent set of guidelines.
(§6) To be a bacteriological cure, the MITT subject had to have a positive culture from the middle ear for S. pneumoniae, H influenzae, or M. catarrhalis. Eradication was defined as presumed eradication of pretreatment pathogen(s) based on signs/symptoms or unavailability of culturable material. All evaluable patients had only one of the bacterial species present at baseline. There was no bacteriological response data collected for 95–001. However, the clinical outcome by bacterial pathogen at follow-up (approximately 28 days after first visit) was collected. For patients with S. pneumoniae as the baseline pathogen, all treatment arms yielded 100% clinical cure when the investigators' evaluations that were missing are not included in the analysis. […] The comparator drug, ceftriaxone, had no failures out of 9 patients.

[3] = system: Haemophilus influenzae 54A1218; test: Gerbil middle ear (otitis media) infection model, ED50, H. influenzae 54A1218; type: in vivo; details: for ED50: past studies
[4] = system: Streptococcus pneumoniae 02J1016; test: Murine peritonitis model, Streptococcus pneumoniae; type: in vivo, mouse; details: oral QD
[5] = system: H. influenzae; test: Study 95-001 otitis media caused by H. influenzae; type: in vivo, human; details: 3-day regimen (10 mg/kg/day); 13 patients; follow-up
Procedure: as §5, §6

[6] = system: Haemophilus influenzae 54A1100; test: Gerbil middle ear (otitis media) infection model, ED50, H. influenzae 54A1100; type: in vivo
[7] = system: H. influenzae; test: Single dose azithromycin pediatric AOM trial, subjects with H. influenzae at baseline; type: in vivo, human
Description: as §1, §2
Samples of middle ear fluid were split for storage at a central laboratory and cultured locally.
as §3
as §4, with “Only Streptococcus pneumoniae, Moraxella catarrhalis and Haemophilus influenzae were considered baseline pathogens for the purposes of these analyses.” left out

[8] = system: S. pneumoniae isolates; test: Susceptibility (MIC) testing of trial S. pneumoniae isolates with PCR of resistance mechanism; type: cell-based, Streptococcus pneumoniae; details: Streptococcus pneumoniae
Description: Samples of middle ear fluid were split for storage at a central laboratory and cultured locally. All pathogens isolated locally were subcultured and sent to a central laboratory for confirmation and susceptibility testing, performed by Kirby-Bauer disk-diffusion or MIC testing according to NCCLS standards.
Polymerase chain reaction (PCR) determination of resistance mechanisms in all the azithromycin-resistant pneumococci was done.
Cultures were taken for antimicrobial susceptibility testing and bacterial species were identified. Current NCCLS approved breakpoints for MICs and zone sizes were applied to all data irrespective of the breakpoint in use at the time of the study. The isolates from the clinical studies were sent to central laboratories for identification and susceptibility determination. The methods for agar diffusion disk tests are those recommended by NCCLS.
The susceptibility breakpoints for azithromycin were defined as follows: […]

[9] = system: H. influenzae 54A1100; test: MIC determination, H. influenzae 54A1100; type: cell-based, Haemophilus influenzae; details: Haemophilus influenzae
Procedure: MIC Determinations. Streptococcus pneumoniae, S. pyogenes, E. faecalis, and H. influenzae MICs were determined using the broth microdilution procedure recommended by the NCCLS. Test trays were incubated at 35C without carbon dioxide. For testing of streptococci, the cation-adjusted Mueller-Hinton broth was supplemented with 2–3% lysed horse blood. For testing H. influenzae, freshly prepared Haemophilus Test Medium broth was used.
Bacterial Strains. • S. pneumoniae 02J1016, serotype 3, originally isolated from blood culture (strain P 4241) (MLS- and penicillin-susceptible). • S. pyogenes 02C0203, ATCC 12384, group A, type 3 (MLS-susceptible). • E. faecalis 03A1085, vancomycin susceptible clinically derived strain. • H. influenzae 54A1100, (43095 ATCC Fulghum strain) non-serotype B strain originally isolated from otitis media (macrolide and penicillin susceptible). • H. influenzae 54A1218, clinically derived non-serotype B strain (macrolide-susceptible, penicillin-resistant, TEM-1 beta-lactamase).

[10] = oral QD, gerbil otitis media model

`CC[C@H]1OC(=O)[C@H](C)[C@@H](O[C@H]2C[C@@](C)(OC)[C@@H](O)[C@H](C)O2)[C@H](C)[C@@H](O[C@@H]2O[C@H](C)C[C@H](N(C)C)[C@H]2O)[C@](C)(O)C[C@@H](C)CN(C)[C@H](C)[C@@H](O)[C@]1(C)O` [Azithromycin, 9a-aza-9a-methyl-9-deoxo-9a-homoerythromycin A] was tested, and the “children with acoustic reflectometry scores improved from baseline” value ([1]; by day 24–28) was 83%, the “children with completely normal acoustic reflectometry readings” value ([1]; by day 24–28) was 53% and the “patients with complete resolution of baseline symptoms” value ([1]; by day 28) was “Ninety-two”. The “patients with impaired tympanic membrane motility” value ([1]; day 10 (93% at baseline)) was 27%, the “subjects with other objective signs of tympanic membrane disease” value ([1]; day 24–28) was “less than 10%” and the “patients with impaired tympanic membrane motility” value ([1]; day 24–28 (93% at baseline)) was 12%. The adverse event diarrhea ([1]; single 30 mg/kg oral dose) was 3%, the adverse event vomiting ([1]; single 30 mg/kg oral dose) was 6% and the “clinical outcomes at EOT or follow-up” value [2] was “either “cure” or “improvement””. For the same compound, the “ED50 One-Day Therapy” value [3, 10] was 84 mg/kg/therapy, the “ED50 Three-Day Therapy” value [3, 10] was 65 mg/kg/therapy and the “ED50 Two-Day Therapy” value [3, 10] was 53 mg/kg/therapy. For the same compound, the ED50 ([3]; Q.D. 1) was 83.8 (53.6–114.1) mg/kg/total regimen, the ED50 ([3]; Q.D. 2) was 53.4 (21.2–85.5) mg/kg/total regimen and the ED50 ([3]; Q.D. 3) was 65.2 (51–79.4) mg/kg/total regimen. The “ED50 One-Day Therapy” value [4] was 8.7^1 mg/kg/therapy, the “ED50 Three-Day Therapy” value [4] was 15.1 mg/kg/therapy and the “ED50 Two-Day Therapy” value [4] was 7.6 mg/kg/therapy. The failures [5] was 2, the ED50 ([6]; Dosing Regimen 1 day) was 138.1 (118.7–157.6) mg/kg/total and the ED50 ([6]; Dosing Regimen 2 days) was 138.1 (118.7–157.6) mg/kg/total. The ED50 ([6]; Dosing Regimen 3 days) was 162.9 (140–185.9) mg/kg/total, the “ED50 One-Day Therapy” value [6, 10] was 138 mg/kg/therapy and the “ED50 Three-Day Therapy” value [6, 10] was 163 mg/kg/therapy. The “ED50 Two-Day Therapy” value [6, 10] was 138 mg/kg/therapy, the ED50 ([6]; past studies, Q.D. 3) was 162.7 mg/kg/total regimen and the “clinical failure (and presumed persistence) rate” value ([7]; MITT, thirty-nine evaluable H. influenzae strains) was 33.3%. For the same compound, the “clinical cure rate overall with PCR-identified H. influenzae cures added” value ([7]; TOC, seventeen PCR-identified patients added) was 76.8%, the “clinical outcome at test of cure of patients with H. influenzae identified by PCR only” value ([7]; seventeen additional patients) was “clinically cured” and the MIC ([8]; macrolide-resistant S. pneumoniae isolates containing the erm B gene) was > 256 µg/mL. The MIC ([8]; macrolide-resistant S. pneumoniae isolates containing the mef A gene) was 8 µg/mL (≈ 10.7 µM), the MIC ([9]; 54A1100, H. influenzae 54A1100) was 1.56 µg/mL (≈ 2.08 µM) and the MIC ([9]; H. influenzae 54A1100, read-out: MIC) was 0.5 to 1 µg/mL (≈ 0.668 to 1.34 µM).
